Values of other authors, collected in patent publication US20220023237A1, “ADDITIVE AND/OR SYNERGISTIC COMBINATIONS OF METFORMIN WITH NUTRACEUTICALS FOR THE PREVENTION, INHIBITION AND TREATMENT OF SARS-COV-2 AND ASSOCIATED COVID-19” (priority 2020, published 2022).
Read-outs that look alike come from different tables or passages of the source.

Assays:
[1] = system: Nrf2 (+/+) primary peritoneal macrophages
[2] = system: LPS-challenged macrophages; details: pre-incubated 6 h, 0 to 50 μM, then LPS 24 h
[3] = system: BALB/c mice with LPS-induced ARDS
[4] = system: lipopolysaccharide-induced inflammatory reactions
[5] = system: mice challenged with endotoxin or live Escherichia coli; details: for concentration of IL-1α: controls 1187.0±278.64
[6] = system: lipopolysaccharide-activated macrophages; details: electrophoretic mobility shift assay
macrophage foam cells = details: pretreatment with EGCG
[7] = system: rats subjected to myocardial ischemia and reperfusion; details: EGCG 10 mg/kg intravenously, then 10 mg/kg/h
[8] = system: mice with experimental colitis
male Sprague-Dawley rats = details: EGCG 10 mg/kg intraperitoneally at 1 and 6 h after CL2P and every 12 h
C57BL6 mice = details: EGCG 10 mg/kg intraperitoneally, 72 h after CL2P
[9] = system: mice with LPS-induced ARDS

C[S+]([O-])CCCCN=C=S (stereo not shown) [sulforaphane, 1-isothiocyanato-4-(methylsulfinyl)-butane]
HO-1 expression ([1]; LPS-stimulated Nrf2 (+/+) macrophages): significantly augmented | LPS-stimulated mRNA expression, protein expression and production of TNF-alpha, IL-1beta, COX-2 and iNOS ([1]; pretreatment, Nrf2 (+/+) macrophages): potently inhibited | expression of NO and cytokines [2]: able to prevent | Nrf2/antioxidant response element (ARE) pathway ([3]; pre-treatment): activated | PGE2 production, COX-2 and MMP-9 protein expression, iNOS activity ([3]; sulforaphane 50 mg/kg): significantly inhibited | LDH activity, wet-to-dry ratio of the lungs, serum IL-6 and TNF-α, nuclear factor-κB protein expression ([3]; sulforaphane 50 mg/kg, LPS 5 mg/kg 3 days later): significantly decreased

CC1=CC(=O)C(C(C)C)=CC1=O [thymoquinone]
lipopolysaccharide-induced inflammatory reactions [4]: suppressed effectively | concentration of nitric oxide ([4]; marker of inflammation): reduced significantly | concentration of IL-1α ([5]; 0.75 mg/kg dose): 310.8 ± 70.93 pg/mL | IL-10 levels ([5]; 0.75 mg/kg, controls 5505.2 ±333.96): 2885.0 ± 553.98 pg/mL | concentration of IL-1α ([5]; 1 mg/kg group): 428.3 ± 71.32 pg/mL | levels of TNF-α and IL-2 ([5]; P values=0.1817 and 0.0851): relatively lower levels | renal and hepatic biomarker profiles ([5]; septic mice): improved | reduction of mortality ([5]; septic mice, thymoquinone intraperitoneal): 80-90%

Epigallocatechin-3-gallate [EGCG]
activation of nuclear factor-kappaB [6]: blocked | TNF-α-induced downregulation of ABCA1 and decrease in cholesterol efflux to apoA1 (macrophage foam cells): attenuated | myocardial damage and myeloperoxidase activity [7]: reduced | plasma IL-6 and creatine phosphokinase levels [7]: decreased | disease activity index (DAI) and spleen index (SI) ([8]; 50 and 100 mg/kg/day, compared with the MD group): decreased | HIF-1α and STAT3 protein expression in the colon ([8]; mouse, in vivo): decreasing | plasma levels of IL-10 and TGF-β1 ([8]; mouse, in vivo): increasing | release of IL-6 and IL-17 ([8]; plasma): reduce | hypotension (male Sprague-Dawley rats): significantly improved | survival (C57BL6 mice): significantly improved | lethal sepsis (mice; first dose given 24 hours after cecal ligation and puncture): rescued | lethal endotoxemia (mice; intraperitoneal administration): protected | expression of IκB-α ([9]; EGCG 10 mg/kg ip): increased | expression of TLR-4, MyD88, TRIF and p-p65 in the lung tissue ([9]; EGCG 10 mg/kg ip): alleviated | expression of TNF-α, IL-1β and IL-6 in the lung, serum and bronchoalveolar lavage fluid ([9]; EGCG 10 mg/kg ip): significantly decreased | expression of p65 ([9]; EGCG 10 mg/kg ip): no influence | LPS-induced ARDS (blood gases, histological lesions, wet-to-dry weight ratios, MPO activity) ([9]; EGCG 10 mg/kg ip 1 h before LPS 10 mg/kg ip): attenuated
